# Test results from US11234954B2, “Low-dose doxepin for treatment of sleep disorders in elderly patients” (Pernix Sleep, Inc., priority 2006, dated 2022).
# Where two headings read alike, the source gives them in different places.
# Assays:
# [1] = tested on: patients aged 65 years or older with primary sleep maintenance insomnia; conditions: Per-Protocol N = 71; for WTDS, Mean (primary efficacy variable): WTDS typically expressed in minutes
# Description: As used herein, the term “polysomnography” (PSG) refers a diagnostic test during which a number of physiologic variables are measured and recorded during sleep. Physiologic sensor leads are placed on the patient in order to record brain electrical activity, eye and jaw muscle movement, leg muscle movement, airflow, respiratory effort (chest and abdominal excursion), EKG and oxygen saturation. Information is gathered from all leads and fed into a computer and outputted as a series of waveform tracings which enable the technician to visualize the various waveforms, assign a score for the test, and assist in the diagnostic process. The primary efficacy variable, wake time during sleep (WTDS) and various secondary efficacy variables are all based on the PSG and are defined as follows.
# “Wake Time During Sleep” (WTDS), typically expressed in minutes, is the number of wake events (epochs) after the onset of persistent sleep and prior to final awakening, divided by two. Each epoch is defined as a 30-second duration on the PSG recording.
# “Wake Time After Sleep” (WTAS), typically expressed in minutes, is the number of epochs after the final awakening until the end of PSG recording (i.e., a wake epoch immediately prior to the end of the recording), divided by two.
# “Wake After Sleep Onset” (WASO) is the sum of WTDS and WTAS.
# “Latency to Persistent Sleep” (LPS), typically expressed in minutes, is the number of epochs from the beginning of the PSG recording (lights-out) to the start of the first 20 consecutive non-wake epochs, divided by two.
# “Total Sleep Time” (TST), typically expressed in minutes, is the number of non-wake epochs from the beginning of the PSG recording to the end of the recording, divided by two.
# “Sleep Efficiency” (SE) is the TST divided by the time in bed (8 hours), multiplied by 100 and expressed as a percentage. This also can be divided into SE for each third-of-the-night of sleep, reflecting the SE for each 160 minute time interval across the night. Finally, SE can be measured for individual hours during the night or sleep period, for example the final hour of the sleep period.
# “NAASO” refers to the number of awakenings after sleep onset.
# A randomized, multi-center, double-blind, placebo-controlled, four-period crossover, dose-response study was designed to assess the effects of doxepin (1 mg, 3 mg and 6 mg) compared with placebo in patients aged 65 years or older with primary sleep maintenance insomnia. Patients received a single-blind placebo for two consecutive nights during the PSG screening period, and double-blind study drug for two consecutive nights during each of the four treatment periods. […] Patients were allowed to leave the sleep center during the day after each PSG assessment was complete. A 5- or 12-day study drug-free interval separated each PSG assessment visit. The duration of study participation per patient was approximately 7 to 11 weeks.
# Patients who qualified for study entry, based on the screening PSG assessments, were randomized to a treatment sequence using a Latin square design. A final study visit was performed for patients either after completion of the four treatment periods or upon discontinuation from the study. Efficacy assessments were made at each visit and safety assessments were performed throughout the study.
# The main inclusion criteria were male and/or female patients, aged 65 years or older, in good general health with at least a 3-month history of Diagnostic and Statistical Manual of Mental Disorders, fourth Edition (DSM-IV)-defined primary insomnia, reporting each of the following on four of seven nights prior to PSG screening: ≤6.5 hours of total sleep time (TST), ≥60 min of wakefulness after sleep onset (WASO) and ≥20 min of latency to sleep onset (LSO). Doxepin HCl 1 mg, 3 mg and 6 mg capsules, and placebo capsules, were provided as a single dose for oral administration.
# The primary efficacy assessment was WTDS.
# [2] = tested on: patients aged 65 years or older with primary sleep maintenance insomnia; experiment: Adverse events and safety, elderly crossover study (Example 1); assay type: in vivo, human
# Excerpt: All randomized patients who received at least one dose of double-blind study medication were included in the safety analyses, which were based on observed data.
# The adverse events are arranged by system organ class.
# [3] = tested on: Adult Patients (Ages 18-64) with Primary Insomnia; experiment: PSG efficacy, four-period crossover dose-response study in adults 18-64 (Example 3); assay type: in vivo, human; conditions: for LPS, Mean / SE, Mean / TST, Mean / WASO, Mean / WTAS, Mean: Per-Protocol N = 61; for WTDS, observed mean (±SD) (primary efficacy variable): WTDS typically expressed in minutes
# Excerpt: The primary and secondary efficacy assessments were as described above in Example 1.
# [4] = tested on: Adult Patients (Ages 18-64) with Primary Insomnia; experiment: Adverse events and safety, adult crossover study (Example 3); assay type: in vivo, human
# Description: A randomized, multi-center, double-blind, placebo-controlled, four-period crossover, dose-response study was designed to assess the effects of doxepin (1 mg, 3 mg and 6 mg) compared with placebo in patients with primary sleep maintenance insomnia.
# The main inclusion criteria were male and/or female patients, aged 18 to 64 years, in good general health with at least a 3-month history of DSM-IV-defined primary insomnia, reporting each of the following on four of seven nights prior to PSG screening: ≤6.5 hours of total sleep time (TST), ≥60 min of WASO and ≥20 min of LSO. Doxepin HCl 1 mg, 3 mg and 6 mg capsules, and placebo capsules, were provided as a single dose for oral administration.
structure (smiles),measurement,setting,value
CN(C)CCC=C1c2ccccc2COc2ccccc21 (mixture of isomers) [Doxepin],"LPS, Mean",[1]; 1 mg,28.3 min
same,"NAASO, Mean",[1]; 1 mg,12.3
same,"SE, Mean",[1]; 1 mg,78.5%
same,"TST, Mean",[1]; 1 mg,376.8 min
same,"WASO, Mean",[1]; 1 mg,80.5 min
same,"WTAS, Mean",[1]; 1 mg,10.4 min
same,"WTDS, Mean (primary efficacy variable)",[1]; 1 mg,70.1
same,"WTDS, Mean (primary efficacy variable)","[1]; 1 mg, listed as doxepin",70.1 (32.78)
same,"LPS, Mean",[1]; 3 mg,23.7 min
same,"NAASO, Mean",[1]; 3 mg,12.8
same,"SE, Mean",[1]; 3 mg,81.0%
same,"TST, Mean",[1]; 3 mg,388.8 min
same,"WASO, Mean",[1]; 3 mg,72.3 min
same,"WTAS, Mean",[1]; 3 mg,5.9 min
same,"WTDS, Mean (primary efficacy variable)",[1]; 3 mg,66.4
same,"WTDS, Mean (primary efficacy variable)","[1]; 3 mg, listed as doxepin",66.4 (31.56)
same,"LPS, Mean",[1]; 6 mg,22.4 min
same,"NAASO, Mean",[1]; 6 mg,12.5
same,"SE, Mean",[1]; 6 mg,82.8%
same,"TST, Mean",[1]; 6 mg,397.4 min
same,"WASO, Mean",[1]; 6 mg,65.2 min
same,"WTAS, Mean",[1]; 6 mg,5.0 min
same,"WTDS, Mean (primary efficacy variable)",[1]; 6 mg,60.2
same,"WTDS, Mean (primary efficacy variable)","[1]; 6 mg, listed as doxepin",60.2 (28.00)
same,HEADACHE: Number of Events,"[2]; 1 mg, N = 74",0
same,HEADACHE: Number of Patients,"[2]; 1 mg, N = 74",0 (0%)
same,HEADACHE: Number of Events,"[2]; 3 mg, N = 75",0
same,HEADACHE: Number of Patients,"[2]; 3 mg, N = 75",0 (0%)
same,HEADACHE: Number of Events,"[2]; 6 mg, N = 74",0
same,HEADACHE: Number of Patients,"[2]; 6 mg, N = 74",0 (0%)
same,"LPS, Mean",[3]; 1 mg,30.1 min
same,"SE, Mean",[3]; 1 mg,84.7%
same,"TST, Mean",[3]; 1 mg,406.5 min
same,"WASO, Mean",[3]; 1 mg,47.3 min
same,"WTAS, Mean",[3]; 1 mg,4.1 min
same,"WTDS, observed mean (±SD) (primary efficacy variable)",[3]; 1 mg,43.2 (28.2)
same,"LPS, Mean",[3]; 3 mg,30.8 min
same,"SE, Mean",[3]; 3 mg,86.5%
same,"TST, Mean",[3]; 3 mg,415.2 min
same,"WASO, Mean",[3]; 3 mg,38.6 min
same,"WTAS, Mean",[3]; 3 mg,5.2 min
same,"WTDS, observed mean (±SD) (primary efficacy variable)",[3]; 3 mg,33.4 (21.87)
same,"LPS, Mean",[3]; 6 mg,27.9 min
same,"SE, Mean",[3]; 6 mg,86.9%
same,"TST, Mean",[3]; 6 mg,417.2 min
same,"WASO, Mean",[3]; 6 mg,38.8 min
same,"WTAS, Mean",[3]; 6 mg,2.5 min
same,"WTDS, observed mean (±SD) (primary efficacy variable)",[3]; 6 mg,35.3 (25.17)
same,HEADACHE: Number of Events,"[4]; 1 mg, N = 66",3
same,HEADACHE: Number of Patients,"[4]; 1 mg, N = 66",3 (5%)
same,NASAL CONGESTION: Number of Events,"[4]; 1 mg, N = 66",1
same,NASAL CONGESTION: Number of Patients,"[4]; 1 mg, N = 66",1 (2%)
same,HEADACHE: Number of Events,"[4]; 3 mg, N = 66",0
same,HEADACHE: Number of Patients,"[4]; 3 mg, N = 66",0 (0%)
same,NASAL CONGESTION: Number of Events,"[4]; 3 mg, N = 66",0
same,NASAL CONGESTION: Number of Patients,"[4]; 3 mg, N = 66",0 (0%)
same,HEADACHE: Number of Events,"[4]; 6 mg, N = 67",1
same,HEADACHE: Number of Patients,"[4]; 6 mg, N = 67",1 (1%)
same,NASAL CONGESTION: Number of Events,"[4]; 6 mg, N = 67",0
same,NASAL CONGESTION: Number of Patients,"[4]; 6 mg, N = 67",0 (0%)
